Like-named read-outs stand apart in the source and are kept apart here.
Experiments:
[1] = tested on: antibody to 3-carboxymethyl opium alkaloid-protein antigen (Leute); conditions: Leute et al., J.A.M.A. 1972; Nature (New Biology) 1972; cited from earlier work
[2] = tested on: antibody IgG raised to azomorphine conjugate (morphine-specific); type: binding
Experimental: The dried sorbent (300 mg) was washed with 50 ml. saline (0.9%) five times and suspended in a final volume of 15 ml, to which 5 ml of crude antiserum raised to the azomorphine conjugate of Example 5, supra was added. […] The matrix recovered by centrifugation was used as a slurry. 10 ml, […] HCL was added to sorbent. After centrifugation for 1 minute the filtered supernatant was neutralized at once with 1 M dibasic sodium phosphate. The acid base cycle was repeated three times. The recovered antibody solution was dialyzed against 12 liters of 0.1 M phosphate buffer, pH 7.4. […] The specificities of recovered antibody IgG were next determined by immune fluorescence techniques.
Quenching of antibody fluorescence was performed using antibody IgG from non pooled samples. […] Native alkaloid was added in increasing amounts to each tube containing azomorphine and IgG in a 10:1 hapten: antibody ratio (× 10^-10 moles/ml). The alkaloid was added to IgG simultaneously with or in advance of azomorphine. All dilutions were done in triplicate. Incubations including controls were carried out for 10 minutes to 12 hours at 23° C.

[3] = tested on: antibody raised to azomorphine conjugate (crude antisera); type: binding; conditions: morphine taken as 100%; for % Cross-reactivity: M50/A50 (amounts for 50% inhibition of labeled hapten binding), Abraham method; for Cross-reactivity of morphine-specific antibody (general statement): under the conditions just described / similarly measured
Experimental: After 2 hours, an equal volume of a neutral, saturated ammonium sulfate solution was added. The resulting precipitates, sedimented by centrifugation at 3000 rpm for 15 minutes at 4° C, were washed once in 50% saturated ammonium sulphate solution. Each precipitate was dissolved in 0.2 ml NCS solubilizer (Amersham-Searle Corp.) and transferred to a scintillation counting vial containing 10 ml. Aquasol dispersant (New England Nuclear Corp.) and counted in a Nuclear Chicago Liquid Scintillation Spectrometer.
Cross-reactivity was computed by the method of Abraham, J. Clin. Endocrin. & Metab.

[4] = tested on: opium alkaloid antibody (prior art, raised with morphine); conditions: summary of all prior art known to applicant; cited from earlier work
[5] = tested on: antibody to 3-carboxymethyl opium alkaloid-protein antigen (Spector); conditions: Spector U.S. Pat. Nos. 3,709,868 and 3,822,245; cited from earlier work
[6] = tested on: antibodies to serotonin; conditions: reported by Spector et al., Science 179:1340 (1973); cited from earlier work
[7] = even in vast hapten excess, azomorphine:IgG 10:1

For `COc1ccc2c3c1O[C@H]1[C@@H](O)C=C[C@H]4[C@@H](C2)N(C)CC[C@@]341` [Codeine, codeine], the Cross-reactivity with codeine [1] is listed as “high cross-reactivity”, the “Inhibition of fluorescence quenching” value [2, 7] is listed as “slight” and the “% Cross-reactivity” value [3] is listed as 11%. For the same compound, the “Cross-reactivity of morphine-specific antibody (general statement)” value (shortened to “Cross-reactivity … (general statement)”) [3] was no more than 20%, the Cross-reactivity with codeine [4] was “extremely high cross-reactivity” and the Cross-reactivity with codeine [5] was “very high cross-reactivity”.

In the case of `COc1ccc2c(c1)[C@@]13CCCC[C@H]1[C@@H](C2)N(C)CC3` [Dextromethorphan, 3-methoxy N-methyl morphinan], the “Inhibition of fluorescence quenching” value [2, 7] is reported as “slight”, the “% Cross-reactivity” value [3] is reported as 0.01% and the “Cross-reactivity … (general statement)” value [3] is reported as no more than 0.1%.

In the case of `CCOc1ccc2c3c1O[C@H]1[C@@H](O)C=C[C@H]4[C@@H](C2)N(C)CC[C@@]341` [Ethylmorphine], the “% Cross-reactivity” value [3] is reported as 16%.

For `CN1CC[C@]23c4c5cc(N=Nc6ccc(C(=O)O)cc6)c(O)c4O[C@H]2[C@@H](O)C=C[C@H]3[C@H]1C5` [Example 1, 2-(4'-carboxyphenylazo) morphine], the “Association constants determined by the Sips equation applied to fluorescence data” value ([2]; antibody IgG from non pooled samples) was 1e+07 to 3e+08 L/mol, the “Quenching maxima (antibody fluorescence)” value ([2]; antibody IgG from non pooled samples, azomorphine as quencher, 23° C) was 56-77% and the “Cross-reactivity … (general statement)” value [3] was “about 100%”.

In the case of `CCC(=O)C(CC(C)N(C)C)(c1ccccc1)c1ccccc1` (stereo not shown) [Methadone], the “% Cross-reactivity” value [3] is reported as 0.01% and the “Cross-reactivity … (general statement)” value [3] is reported as no more than 0.1%.

In the case of `CC(=O)O[C@H]1C=C[C@H]2[C@H]3Cc4ccc(O)c5c4[C@@]2(CCN3C)[C@H]1O5` [Monoacetylmorphine], the “Inhibition of fluorescence quenching” value [2, 7] is reported as “slight”, the “% Cross-reactivity” value [3] is reported as 7% and the “Cross-reactivity … (general statement)” value [3] is reported as “not more than 10%”.

In the case of `CN1CC[C@]23c4c5ccc(O)c4O[C@H]2[C@@H](O)C=C[C@H]3[C@H]1C5` [Morphine, morphine], the “Inhibition of fluorescence quenching” value ([2]; morphine 40 × 10^-10 moles/ml, 1 × 10^-10 moles/ml antibody, 10 × 10^-10 moles/ml azomorphine) is reported as “completely inhibited” and the “% Cross-reactivity” value [3] is reported as 100%.

With `C=CCN1CC[C@]23c4c5ccc(O)c4O[C@H]2[C@@H](O)C=C[C@H]3[C@H]1C5` [N-allylnormorphine] the “% Cross-reactivity” value [3] was 2%.

For `CC(=O)Oc1ccc2c3c1O[C@H]1[C@@H](OC(C)=O)C=C[C@H]4[C@@H](C2)N(C)CC[C@@]341` [heroin, Diacetylmorphine], the “Inhibition of fluorescence quenching” value [2, 7] was “slight”, the “% Cross-reactivity” value [3] was 7% and the “Cross-reactivity … (general statement)” value [3] was “not more than 10%”.

For `COc1ccc2[nH]cc(CCN)c2c1` [methoxyserotonin, 5-methoxytryptamine], the “Cross-reactivity with serotonin antibodies” value [6] is given as “substantially complete cross-reactivity”.

Reference: patent publication US4064228A (priority 1975, dated 1977)
